The record followed here is patent publication US4870175A, “6-substituted alkoxy-2-oxo-1,2-dihydroquinoxaline derivatives” (Toyo Jozo Kabushiki Kaisha, priority 1987, dated 1989).

Like-named read-outs stand apart in the source and are kept apart here.

Experiment [1] relates to cyclic AMP/phosphodiesterase. The experiment in a line: Inhibitory action of cyclic AMP/phosphodiesterase (crude enzyme fraction from sonicated rabbit platelets). In kind it is biochemical. To be noted: 40 min. As to the method: The pharmacological activity of the present compounds [1] is illustrated below. (1) Inhibitory action of cyclic AMP/phosphodiesterase:
A mixture of 2 mM MgCl2 /40 mM Tris-buffer (pH 7.5) 700 μl, enzyme solution (a crude enzyme fraction obtained from sonicated rabbit platelets) 100 μl, and a test sample solution (compound [1] dissolved in 50% aqueous methanol) 100 μl is incubated at 30° C. for 5 mins. 3', 5'-cyclic AMP 100 μl (50 μg) is added thereto and the mixture is further incubated for 40 mins. The reaction is stopped by heating 100° C. for 5 mins. The amount of 5'-AMP in the supernatant obtained by centrifugation at 3000 rpm for 5 mins. is measured using HPLC.
As shown in that table, the compound of the present invention has cyclic AMP/phosphodiesterase inhibitory activity at 1-10 μg/ml.

Experiment [2] relates to rabbit platelet-rich plasma. In words: Platelet aggregation inhibition (rabbit platelet-rich plasma, aggregometer). In kind it is cell-based. The conditions noted are these: Oryctolagus cuniculus, compound final concentration 10 μM, read-out: Inhibitory ratio. The procedure: (2) Platelet aggregation inhibition:
A rabbit platelet-rich plasma (5×10^5 /mm^3), to which was added 1/10 volume of a 3.8% sodium citrate solution, 216 μl, is incubated in an aggregometer at 37° C., 1000 rpm, for 3 mins. A test sample solution 12 μl (final concentration 10 μM) is added thereto and the mixture is further incubated for 3 mins., and collagen (aggregation agent) 2.5 μg/ml, ADP 2.5 μM, platelet activating factor (PAF) 0.05 μg/ml or 0.25 mM arachidonic acid (A.A.) 12 μl is added thereto as an aggregating agent, and the platelet aggregation activity is measured.

Setting [3] is: aggregating agent PAF 0.05 μg/ml.
Setting [4] is: aggregating agent arachidonic acid (A.A.) 0.25 mM.
Setting [5] is: aggregating agent collagen 2.5 μg/ml.

Turning to `CCc1nc2cc(OCCCC(=O)N(CCO)C3CCCCC3)ccc2[nH]c1=O` [Compound 972], the Inhibitory ratio stood at 84.4% in experiment [1] (1 μg/ml) and 93.4% in experiment [1] (10 μg/ml). Also, the inhibition at 10 µM in experiment [2] (aggregating agent ADP 2.5 μM) was determined as 63.6%; in experiment [2] (setting [3]) it was 56.3%; in experiment [2] (setting [4]), 48.7%; in experiment [2] (setting [5]), 70.5%.

Turning to `CCOC(=O)CCCOc1ccc2[nH]c(=O)c(C)nc2c1` [Compound 945], the Inhibitory ratio in experiment [1] (1 μg/ml) worked out at 44.3%; in experiment [1] (10 μg/ml) it was 83.5%; in experiment [1] (100 μg/ml), 88.9%. Also, in experiment [2] (setting [5]), the inhibition at 10 µM worked out at 54.2%.

In the case of `Cc1nc2cc(OCCCC(=O)N(CCO)C3CCCCC3)ccc2[nH]c1=O` [Compound 966], the Inhibitory ratio worked out at 54.5% in experiment [1] (1 μg/ml), 86.6% in experiment [1] (10 μg/ml) and 93.7% in experiment [1] (100 μg/ml). For the same compound, the inhibition at 10 µM in experiment [2] (setting [5]) was found to be 83.5%.

As for `CCCc1nc2cc(OCCCC(=O)OCC)ccc2[nH]c1=O` [Compound 947], the figures for the Inhibitory ratio in experiment [1] (1 μg/ml) and in experiment [1] (10 μg/ml) were 66.9% and 90.1%, respectively. Besides, the inhibition at 10 µM in experiment [2] (aggregating agent ADP 2.5 μM) came out at 59.5%; in experiment [2] (setting [3]), 27.5%; in experiment [2] (setting [4]), 19.6%; in experiment [2] (setting [5]), 39.5%.

With `CN(C(=O)CCCCOc1ccc2[nH]c(=O)cnc2c1)C1CCCCC1` [Compound 920], the results for the Inhibitory ratio in experiment [1] (1 μg/ml), in experiment [1] (10 μg/ml) and in experiment [1] (100 μg/ml) were 42.9%, 81.7% and 75.1%, respectively. The inhibition at 10 µM came out at 49.3% in experiment [2] (aggregating agent ADP 2.5 μM), 26.9% in experiment [2] (setting [3]), 30.2% in experiment [2] (setting [4]) and 52.5% in experiment [2] (setting [5]).

As for `CCOC(=O)CCCOc1ccc2c(c1)NCC(=O)N2` [Compound 925, 6-(3-ethoxycarbonylpropoxy)-2-oxo-1,2,3,4-tetrahydroquinoxaline], the figures for the Inhibitory ratio in experiment [1] (1 μg/ml), in experiment [1] (10 μg/ml) and in experiment [1] (100 μg/ml) were 5.3%, 26.4% and 71.3%, respectively. In addition, the inhibition at 10 µM is 56.5% in experiment [2] (aggregating agent ADP 2.5 μM), 29.5% in experiment [2] (setting [3]), 46.5% in experiment [2] (setting [4]) and 53.8% in experiment [2] (setting [5]).

For `O=C(CCCOc1ccc2[nH]c(=O)cnc2c1)N(CCO)C1CCCCC1` [Compound 917], the Inhibitory ratio in experiment [1] (1 μg/ml) is given as 16.6%; in experiment [1] (10 μg/ml) it was 59.3%; in experiment [1] (100 μg/ml) it was 87.7%. Further, the inhibition at 10 µM in experiment [2] (aggregating agent ADP 2.5 μM) came to 36.9%; in experiment [2] (setting [3]), 36.7%; in experiment [2] (setting [4]) it was 32.6%; in experiment [2] (setting [5]), 57.4%.

`CCN(C(=O)CCCCOc1ccc2[nH]c(=O)cnc2c1)C1CCCCC1` [Compound 921]: the Inhibitory ratio in experiment [1] (1 μg/ml) came to 49.8%; in experiment [1] (10 μg/ml) it was 84.5%; in experiment [1] (100 μg/ml), 93.0%. Further, the inhibition at 10 µM turned out to be 62.6% in experiment [2] (aggregating agent ADP 2.5 μM), 35.3% in experiment [2] (setting [3]), 44.7% in experiment [2] (setting [4]) and 81% in experiment [2] (setting [5]).

In the case of `CCN(C(=O)CCCOc1ccc2[nH]c(=O)cnc2c1)C1CCCCC1` [Compound 915], the results for the Inhibitory ratio in experiment [1] (1 μg/ml), in experiment [1] (10 μg/ml) and in experiment [1] (100 μg/ml) were 37.2%, 77.7% and 85.1%, respectively. For the same compound, the inhibition at 10 µM came out at 41% in experiment [2] (aggregating agent ADP 2.5 μM), 36% in experiment [2] (setting [3]), 30.4% in experiment [2] (setting [4]) and 63.2% in experiment [2] (setting [5]).

On to `CCOC(=O)CCCOc1ccc2[nH]c(=O)c(CC)nc2c1` [Compound 946], for which the Inhibitory ratio in experiment [1] (1 μg/ml) is recorded as 78.7%; in experiment [1] (10 μg/ml), 92.5%. Moreover, the inhibition at 10 µM in experiment [2] (aggregating agent ADP 2.5 μM) was found to be 91.5%; in experiment [2] (setting [3]), 90.7%; in experiment [2] (setting [4]), 85.1%; in experiment [2] (setting [5]), 79.2%.

For `O=C1CNc2cc(OCCCCc3nnnn3C3CCCCC3)ccc2N1` [Compound 931, 6-[4-(1-cyclohexyltetrazole-5-yl)-butoxy]-2-oxo-1,2,3,4-tetrahydroquinoxaline], the Inhibitory ratio in experiment [1] (1 μg/ml) is reported as 25.3%; in experiment [1] (10 μg/ml), 74.3%; in experiment [1] (100 μg/ml), 86.4%. The results for the inhibition at 10 µM in experiment [2] (setting [3]), in experiment [2] (setting [4]) and in experiment [2] (setting [5]) were 44.3%, 34% and 65.2%, respectively.
